Test results reported in patent US5512479A, “Method of degrading volatile organochlorides and remediation thereof” (priority 1993, dated 1996).

Legend:
[1] = test system: toluene monooxygenase (TMO); assay: TCE induced TMO activity with different growth substrates (14C-toluene assay); assay type: cell-based, Pseudomonas mendocina KR-1; settings: 40 μM TCE; for factor of TMO activity increase after addition of the substrate (FIG. 4): 3 g/L glutamate, 2 g/L glucose, or 20 mM lactate added after 2.75 hours; for induced TMO activity increase (FIG. 4): growth substrate run, 6 hour period
Procedure: (§1) Radioactivity in the bottles was enumerated by placing the bottles in a liquid scintillation counter. Results were recorded as disintegrations per minute (DPM). […] Non-volatile products were not evaporated from the silica gel during the drying phase, and were enumerated by scintillation counting. Thus, the greater the DPMs, the greater the TMO activity.
(§2) The effect of three growth substrates on TCE induced TMO activity was also established through a series of four runs. Cells were grown overnight as previously described for non-inducing growth: 30° C., 100 RPM, 50 mL cells in 125 mL flask in BSM with either 3 g/L sodium glutamate, 20 mM lactate, or 2 g/L glucose. The cultures were then washed and suspended to an O.D.550 =1.0 in BSM plus 0.3 g/L glutamate, 2.0 mM lactate, and 0.2 g/L glucose, respectively. TCE was then added to a final concentration of 40 μM, vials were sealed, and shaken at 30° C. […] At timed intervals, 10 μL of the air above the reaction mixture was removed from the vials by using a gas-tight syringe, and injected onto a gas chromatograph (Varian 3400; Star Data System) equipped with a 30M VOCOL column (Supelco Inc.: c0.53 mm ID, […] film, helium carrier at 7 mL/min, 100° C. isothermal, injector at 225° C.) and an electron capture detector (GC-ECD; 300° C.) to quantify the TCE remaining in the vial. Relative TCE concentration was enumerated as area counts, greater area counts representing greater amounts of TCE remaining in the vials. Five cell suspensions as described above were supplemented with 1 μM, 10 μM, 20 μM, 40 μM and 80 μM of TCE. A control run not shown in FIG. 3, and performed in the same manner as the other five runs, contained only DMF. Cell suspensions were incubated at 30° C. with shaking, and TMO activity, as described above with respect to Example 1, was determined at timed intervals.

[2] = test system: toluene monooxygenase (TMO); assay type: cell-based, Pseudomonas mendocina KR-1; settings: for TMO Activity (DPM): cells grown 48 hr on growth substrate (Table 1); for % Activity: relative to toluene-grown cells (Table 1)
Procedure: as §1
To determine the ability of alkanes to assist in the induction of TMO activity in P. mendocina KR-1 and to subsequently degrade TCE, the organism was grown in basal salts medium with hexane, octane and pentane as sole carbon and energy sources.
Cells were grown for 48 hr, washed with BSM, then suspended to an OD550 of 1.0 in BSM. Cells were incubated for 1 hr to allow removal of most residual alkane. They were then subjected to TMO and TCE assays.

[3] = test system: toluene monooxygenase (TMO); assay type: cell-based, Pseudomonas mendocina KR-1; settings: for induction of TMO, in words: substrate added to glutamate-grown cells
Procedure: as §1
A TMO assay was performed on the cells. Then 5 ml of the culture was added to each of four 50 mL serum vials. […] The vials were incubated at 30° C. and sampled, by using a glass syringe, at 1.5 hr and 2.5 hr after substrate addition.

[4] = test system: Pseudomonas mendocina KR-1; assay: TCE degradation (TCE bottle assay, gas chromatography); assay type: cell-based
Procedure: as §2
To determine the ability of alkanes to assist in the induction of TMO activity in P. mendocina KR-1 and to subsequently degrade TCE, the organism was grown in basal salts medium with hexane, octane and pentane as sole carbon and energy sources. TMO activity was determined by using the ^14 C-toluene assay and TCE degradation was measured by using a TCE bottle assay, both as described previously.
Finally, alkane grown cells were analyzed for their ability to degrade TCE by using the TCE bottle assay and cells suspended in BSM to OD550 =2.0. […] Loss of TCE in the control (glucose) sample is thought to be due to induction of TMO by TCE.

[5] = test system: Pseudomonas cepacia; settings: cited from earlier work
[6] = test system: Pseudomonas putida; settings: only upon induction by toluene or phenol; cited from earlier work
[7] = test system: toluene monooxygenase (TMO); assay: TMO activity induced by TCE (14C-toluene assay); assay type: cell-based, Pseudomonas mendocina KR-1
Procedure: Cells were first grown overnight under non-inducing conditions. Specifically, cells were grown by suspending a small amount of cells from agar plate, or broth media, in a 125 mL flask containing 50 mL of basal salts medium (BSM) containing 3 g/L sodium glutamate with or without 0.1 g/L casamino acids (Difco). Cells were placed on a rotary shaker and shaken at 100 rpm and 30° C. for 16-24 hr. The cells were then centrifuged and washed with BSM. They were subsequently suspended in BSM and glutamate (3 g/L) to an optical density at 550 nm (OD550) of 1.0. Ten mL of cell suspension was added to a 50 mL serum vial, and 10 μL TCE (40 mM) dissolved in dimethylformamide (DMF) was added to a final concentration of 40 μM.
Comparison non-induced samples were prepared by adding only dimethylformamide (10 μL) to replicate 10 mL cell suspensions. The comparison samples contained no TCE. All sample vials were sealed with teflon-coated crimp seals and the cell suspensions were shaken at 25° C.
as §1
Another set of experiments containing five runs was performed to determine the preferred concentration of TCE used to induce the TMO genes in P. mendocina KR-1. TCE degradation was measured by suspending cells in BSM to an OD550 of 1.0. 10 mL of cells were added to 50 mL serum vials and 10 μL of TCE in dimethylformamide was added (final TCE concentration: 1-80 μM). Vials were sealed with teflon-lined crimp seals and shaken at 30° C. At timed intervals, 250 μl of sample was removed from each sample by using a syringe. The sample was mixed with 250 μl BSM to generate a final volume of 0.5 mL and OD550 of 0.5. ^14 C-Toluene assays were then performed on the samples as described previously.

Compound: CC(O)C(=O)O (stereo not shown) [lactate]
- TMO activity up to 2.75 hours (FIG. 4) ([1]; before addition of further substrate): little or no TMO activity
- factor of TMO activity increase after addition of the substrate (FIG. 4) [1]: at least 5

Compound: CCCCCCCC [Octane]
- TMO Activity (DPM) [2]: 3915 DPM
- % Activity [2]: 23%

Compound: CCCCC [Pentane]
- TMO Activity (DPM) [2]: 2079 DPM
- % Activity [2]: 12%
- TMO Activity (DPM), T = 1.5 hr. ([3]; 1.5 hr after substrate addition, 30° C. (Table 2)): 2480 DPM
- TMO Activity (DPM), T = 2.5 hr. ([3]; 2.5 hr after substrate addition, 30° C. (Table 2)): 1293 DPM
- TMO Activity (DPM), T = 0 ([3]; T = 0, before substrate addition (Table 2)): 126 DPM
- TMO Activity (DPM), T = 1.5 hr., killed cells ([3]; killed (100 μl 1M HCl) + pentane, 1.5 hr (Table 2)): 128 DPM
- TMO Activity (DPM), T = 2.5 hr., killed cells ([3]; killed (100 μl 1M HCl) + pentane, 2.5 hr (Table 2)): 121 DPM
- TMO Activity (DPM), T = 0, killed cells ([3]; killed (100 μl 1M HCl) + pentane, T = 0 (Table 2)): 126 DPM
- induction of TMO, in words [3]: induction of TMO by pentane

Compound: CCCCCC [Hexanes]
- TMO Activity (DPM) [2]: 4889 DPM
- % Activity [2]: 29%

Compound: Cc1ccccc1 [Toluene, reference compound]
- % Activity [2]: 100%
- induction of TMO, in words [3]: only limited activity was observed

Compound: N[C@@H](CCC(=O)[O-])C(=O)[O-].[Na+].[Na+] [Gultamate, sodium glutamate, reference compound]
- induced TMO activity increase (FIG. 4) [1]: up to 3,500 DPM
- factor of TMO activity increase after addition of the substrate (FIG. 4) [1]: at least 5
- TMO Activity (DPM) [2]: 123 DPM
- % Activity [2]: 0.7%

Compound: glucose
- induced TMO activity increase (FIG. 4) [1]: under 5,000 DPM
- factor of TMO activity increase after addition of the substrate (FIG. 4) [1]: at least 5
- effect of growth substrate on TCE degradation (FIG. 5) ([4]; 40 μM TCE, 6 hours): greatest effect on TCE degradation

Compound: ClC=C(Cl)Cl [TCE, trichloroethylene]
- TCE degradation by Pseudomonas cepacia G4 ([5]; grown without an inducer): unable to degrade TCE
- TCE degradation by Pseudomonas cepacia 5223-PR1 ([5]; recombinant strain): did display the ability to degrade TCE
- TMO induction by TCE in glutamate- and glucose-grown cells [1]: rapid induction
- percentage of TCE remaining (FIG. 6) ([4]; 6 hours, glucose (2 g/L) added after about 3 hours, 40 µM): about 10%
- loss of TCE in the control (glucose) sample (FIG. 7) ([4]; OD550 = 2.0, glucose-grown control): Loss of TCE
- TCE degradation (FIG. 6) ([4]; absent any additional inducing substrates): TCE degradation occurs simply by contacting Pseudomonas mendocina cells with TCE
- TCE concentrations in response to TMO induction (FIG. 5) ([4]; sealed vials, 6 hours): decreased in response to TMO induction
- TCE degradation by Pseudomonas putida PpF1 and B5 [6]: some ability to degrade TCE
- TMO activity (FIG. 3) ([7]; 1 μM TCE, 4 hour test period): very little TMO activity was measured
- TMO activity (FIG. 3) ([7]; 10 μM or more of TCE, after the first half hour): increased dramatically after the first half hour
- induced TMO activity over 30 minutes (FIG. 1) ([7]; 40 μM TCE, 25° C., 30 minute period): increased dramatically over the 30 minute time period
- TMO activity (FIG. 2) ([7]; 40 μM TCE, first 75 minutes): over 3,000 DPM
- further increase of TMO activity (FIG. 2) ([7]; 40 μM TCE, remaining 4 1/2 to 5 hours of six hour experiment): almost two fold
- rate of increase of TMO activity (FIG. 1) ([7]; 40 μM TCE, ten minute time interval): substantially two fold rate
- induction of TMO activity (FIG. 3) ([7]; 10 and 20 μM TCE): best results with respect to induction of TMO activity
- induction of TMO activity (FIG. 3) ([7]; concentrations higher than 10 and 20 μM TCE): quite effective
